# Experimental data as given in patent US20210386756A1, “IMPROVEMENTS FOR PERFORMING AND FACILITATING THE RECOVERY AFTER HEMATOPOIETIC STEM CELL TRANSPLANTATION” (Centro de Investigaciones Energéticas, Medioambientales y …, priority 2018, published 2021).
# What was measured:
# [1] = tested on: human cord blood CD34+; test: Human engraftment in male NSG mice transplanted with a limited CD34+ cell dose (5×10^3); type: in vivo, mouse
# Protocol: FIG. 6A indicates the level of human engraftment, which was raised by E4 administration. […] (Kruskal-Wallis test; P=0.1150, 7-10 mice per group). […] Three-four months later, the animals were sacrificed and the human hematopoietic engraftment was analyzed by FACS. Human hematopoietic population was identified as the cells positive for hCD45-APC-Cy7 (Biolegend) and negative for mouse CD45.1-PE (Biolegend). To determine whether estrogen can improve hematopoietic reconstitution of low number of hematopoietic progenitors, male NSG were irradiated and transplanted with low doses of human cord blood CD34+ (5×103 hCD34+). The human engraftment was analyzed as described in Example 1.
# [2] = tested on: human cord blood CD34+; test: Human engraftment in female NSG mice transplanted with a limited CD34+ cell dose (5×10^3); type: in vivo, mouse; conditions: low dose 5×10^3 hCD34+, mean +/− SEM
# Text: FIG. 7A indicates human hematopoietic reconstitution after four months. […] However, in spite of this presence of endogenous estrogens, the human engraftment in female recipients was increased after E2 and more importantly after E4 treatment. FIG. 7B relates the presence of primitive hematopoietic progenitors was higher in the female mice treated with estrogens, which indicated the quality of the reconstitution. (Kruskal-Wallis test; P<0.05, 4 mice per group). […] Three-four months later, the animals were sacrificed and the human hematopoietic engraftment was analyzed by FACS. Human hematopoietic population was identified as the cells positive for hCD45-APC-Cy7 (Biolegend) and negative for mouse CD45.1-PE (Biolegend). To assess whether estrogen can improve hematopoietic reconstitution in female recipients, female NSG were irradiated and transplanted by a low doses of human cord blood CD34^+ (5×10^3 hCD34^+). The human engraftment was analyzed as described in Example 1. […] However, in spite of this presence of endogenous estrogens, the human engraftment in female recipients was increased after E2 and more importantly after E4 treatment.
# [3] = tested on: human cord-blood CD34+ cells; test: Human hematopoietic engraftment in male NSG mice transplanted with 5×10^4 human cord-blood CD34+ cells; type: in vivo, mouse
# Protocol: Three-four months later, the animals were sacrificed and the human hematopoietic engraftment was analyzed by FACS. Human hematopoietic population was identified as the cells positive for hCD45-APC-Cy7 (Biolegend) and negative for mouse CD45.1-PE (Biolegend). In order to further examine the effect of the estrogen in HSCT, hematopoietic progenitors (hCD34+) and hematopoietic stem cells (hCD34+/hCD38−) were analyzed by FACS inside of the human population in the treated NSG described in Example 1.
# [4] = tested on: hCD34+ hematopoietic progenitors; test: In vitro toxicity of natural estrogens for hematopoietic progenitors (hCD34+ culture, FACS subsets); type: cell-based, human; conditions: for % CD34+/CD38− / % HSC / % MLP / % MPP: four days culture
# Protocol: FIG. 9 relates the effect of different concentration of E1, E2, E3 and E4 in human hematopoietic progenitors. Human hematopoietic progenitors were culture in phenol red free media supplemented with 100 ng/mL SCF, 100 ng/ml FLT3L and 100 ng/ml TPO and different concentration of E1, E2, E3 and E4 (from 10 nM to 500 μM). FIG. 9A represents the fold increase of the number of hematopoietic cells after four days in culture. FIG. 9B indicates the total number of primitive hematopoietic progenitors (CD34^+/CD38^−) present in the culture, extrapolated from number of cells and the frequency of this population analyzed by FACS. […] Grey dashed lines point the value of control group, and red dashed lines indicate the initial values at day 0. (Kruskal-Wallis test; P<0.05, data from four independent experiments).
# To assess the toxicity of the natural estrogens (E1, E2, E3 and E4) for hematopoietic progenitors, in vitro studies were performed. 5×10^4 hCD34^+ were cultured in a phenol red-free media, X-Vivo 20 (Lonza), in presence of 100 ng/ml SCF, 100 ng/ml FLT3L, 100 ng/ml TPO, 0.5% PS, 1% Glutamax (Thermofisher) and different concentrations of E1, E2, E3 or E4 (from 10 nM to 500 μM). Cell proliferation and immunophenotype of different hematopoietic subsets (CD34^+/CD38^−, HSC [CD34^+/CD38^−/CD45RA^−/CD90^+], Multipotent Progenitors [MPP, CD34^+/CD38^−/CD45RA^−/CD90^−], Multipotent Lymphoid Progenitors [MLP, CD34^+/CD38^−/CD45RA^+] were evaluated at day 0 and four days after culture.
# [5] = biological target: T1, sex hormone-binding globulin (SHBG) (Homo sapiens, UniProt P04278); conditions: cited from earlier work
# T1 sequence (P04278 30-402): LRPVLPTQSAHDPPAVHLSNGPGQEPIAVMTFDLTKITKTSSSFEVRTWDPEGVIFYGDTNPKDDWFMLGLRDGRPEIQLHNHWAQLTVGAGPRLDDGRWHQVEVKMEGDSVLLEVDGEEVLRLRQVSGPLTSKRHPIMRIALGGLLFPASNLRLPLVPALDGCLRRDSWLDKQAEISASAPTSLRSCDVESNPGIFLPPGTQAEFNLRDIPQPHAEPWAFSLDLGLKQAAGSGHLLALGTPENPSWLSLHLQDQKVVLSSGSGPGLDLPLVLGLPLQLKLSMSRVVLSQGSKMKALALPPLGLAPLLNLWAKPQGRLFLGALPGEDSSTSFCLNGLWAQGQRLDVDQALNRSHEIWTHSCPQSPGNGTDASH
smiles,measurement,setting,value
"C[C@]12CC[C@@H]3c4ccc(O)cc4CC[C@H]3[C@@H]1[C@@H](O)[C@@H](O)[C@@H]2O [E4, estetrol]",proportion of engrafted mice (human engraftment above 0.1%),[1]; 5×10^3 CB-CD34+,70%
same,change of the proportion of engrafted mice versus vehicle,"[1]; limited HPC dose, engraftment above 0.1%",almost tripled
same,Percentage of human hematopoietic reconstitution,"[1]; low dose 5×103 hCD34+, mean +/− SEM",3.20 +/− 1.43 (n = 9) %
same,Percentage of hematopoietic stem cells (hCD34+/hCD38−) in the human hematopoietic population,[2],0.39 +/− 0.08 (n = 3) %
same,Percentage of human hematopoietic reconstitution,[2],40.80 +/− 4.58 (n = 3) %
same,Percentage in the human hematopoietic population: hematopoietic stem cells,"[3]; hCD34+/hCD38−, male NSG, 5×10^4 CD34+, 2 μg daily for four days, mean +/− SEM",0.87 +/− 0.11 (n = 11) %
same,Percentage in the human hematopoietic population: hematopoietic progenitors,"[3]; hCD34+, male NSG, 5×10^4 CD34+, 2 μg daily for four days, mean +/− SEM",13.94 +/− 0.85 (n = 11) %
same,Percentage of human hematopoietic reconstitution,"[3]; male NSG, 5×10^4 CD34+, 2 μg daily for four days, three-four months later, mean +/− SEM",47.47 +/− 6.08 (n = 9) %
same,Percentage in the human hematopoietic population: Lymphoid,"[3]; male NSG, 5×10^4 CD34+, 2 μg daily for four days, CD19+, mean +/− SEM",81.22 +/− 4.83 (n = 5) %
same,Percentage in the human hematopoietic population: Myeloid,"[3]; male NSG, 5×10^4 CD34+, 2 μg daily for four days, CD33+, mean +/− SEM",8.24 +/− 1.65 (n = 5) %
same,"human hematopoietic progenitors (hCD34+) and human HSC (hCD34+CD38−) in the human engraftment, significance","[3]; three months post-transplant, Kruskal-Wallis P<0.05",statistically significant differences compared to controls and E2 treated group
same,toxicity for hematopoietic progenitor subpopulations,"[4]; 10 nM to 500 μM, in vitro",less toxic
same,% CD34+/CD38−,[4]; 10 nM,13.35 ± 0.87%
same,% HSC,[4]; 10 nM,1.75 ± 0.13%
same,% MLP,[4]; 10 nM,4.29 ± 0.44%
same,% MPP,[4]; 10 nM,4.39 ± 0.25%
same,% CD34+/CD38−,[4]; 100 nM,12.60 ± 0.68%
same,% HSC,[4]; 100 nM,1.67 ± 0.12%
same,% MLP,[4]; 100 nM,4.42 ± 0.16%
same,% MPP,[4]; 100 nM,4.35 ± 0.56%
same,% CD34+/CD38−,[4]; 1 μM,12.08 ± 1.22%
same,% HSC,[4]; 1 μM,1.86 ± 0.20%
same,% MLP,[4]; 1 μM,3.48 ± 0.73%
same,% MPP,[4]; 1 μM,4.89 ± 0.30%
same,% CD34+/CD38−,[4]; 10 μM,13.62 ± 0.54%
same,% HSC,[4]; 10 μM,2.03 ± 0.04%
same,% MLP,[4]; 10 μM,4.30 ± 0.29%
same,% MPP,[4]; 10 μM,4.57 ± 0.35%
same,% CD34+/CD38−,[4]; 100 μM,17.26 ± 2.24%
same,% HSC,[4]; 100 μM,3.67 ± 0.65%
same,% MLP,[4]; 100 μM,5.66 ± 1.49%
same,% MPP,[4]; 100 μM,3.85 ± 0.32%
same,% CD34+/CD38−,[4]; 500 μM,10.82 ± 2.79%
same,% HSC,[4]; 500 μM,3.76 ± 1.25%
same,% MLP,[4]; 500 μM,0.89 ± 0.18%
same,% MPP,[4]; 500 μM,3.11 ± 1.20%
same,binding by SHBG,[5],not bound
